Laboratory results: patent publication US20130164338A1 (priority 2010, published 2013)

System: S. pneumoniae (Serotype 3; ATCC 6303)
Assay: S. pneumoniae mouse pneumonia model, nebulized salt formulations
Type: in vivo, C57BL/6 mice
Details: nebulized 2 h before infection; ~0.72 mg Ca/kg, ampicillin ~3 mg/kg

CC1(C)S[C@@H]2[C@H](NC(=O)[C@H](N)c3ccccc3)C(=O)N2[C@H]1C(=O)O [ampicillin]
reduction of bacterial titers in lungs relative to saline control: 33 fold
